Experimental data as given in patent publication US20100003712A1, “BIOMARKER FOR ASSESSING RESPONSE TO CHYMASE TREATMENT” (priority 2008, published 2010).
Each block holds one molecule with its values, some of them ahead of it.

Tests used:
[1] = system: other serine proteases; conditions: cited from earlier work
[2] = system: IL-18 levels in saliva; experiment: IL-18 levels in human saliva after 14 days of dosing; type: in vivo; conditions: human subjects
Procedure: To examine the dose effects of COMPOUND NO. 1 on the IL-18 levels, subjects were treated with 0, 100, 600 mg of COMPOUND NO. 1 for 14 days and the saliva samples were collected. IL-18 levels in the samples were measured by ELISA as described above. […] 1 at 600 mg as compared to the placebo group (FIG. 8). The IL-18 levels were similar in the placebo group and the subjects treated with COMPOUND NO. 1 at 100 mg.

[3] = target: T1, recombinant human chymase (Homo sapiens, UniProt P23946); experiment: reversal of chymase-induced decrease of IL-18 levels in human saliva (ELISA); type: biochemical; conditions: 37° C.; for dose-dependent reversal of chymase-induced decrease of IL-18 levels: 0-10,000 nM compound, human saliva; for dose-dependent reversal of chymase-induced decrease of IL-18 levels / IC50: 80 nM chymase, 1 hr; for IC50: n=3, ELISA, read-out: IC50 for reversal of chymase-induced IL-18 reduction; for reversal of chymase-induced reduction of IL-18 levels: chymase 2 μg/ml, COMPOUND No. 3 1 μM or chymostatin 3 μg/ml, 1 h
T1 construct: made in house
T1 sequence (P23946 22-247): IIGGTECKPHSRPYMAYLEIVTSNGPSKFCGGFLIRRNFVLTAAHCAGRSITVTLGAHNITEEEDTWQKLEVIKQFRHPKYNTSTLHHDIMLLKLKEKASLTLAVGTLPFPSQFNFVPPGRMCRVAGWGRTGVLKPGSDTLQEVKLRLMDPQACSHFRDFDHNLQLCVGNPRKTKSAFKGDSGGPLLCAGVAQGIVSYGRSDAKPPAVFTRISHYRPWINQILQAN
Procedure: (§1) The digestion was measured using the enzyme-linked immunosorbent assay (ELISA) kit (R&D Systems). […] As the ELISA detection provided quantitative measurement and high-throughput screening capacity, it was used for the following experiments.
Next, activities of the recombinant chymase and COMPOUND NO. 3 were examined with endogenous IL-18.
The dose effects of the chymase inhibitors on IL-18 levels were also examined. […] The IL-18 levels were measured using ELISA as described above.
Next, the effects of various serine proteases and inhibitors on IL-18 levels were examined.

[4] = system: tryptase; experiment: reversal of tryptase-induced reduction of IL-18 in saliva (ELISA); type: biochemical; conditions: tryptase 1 μg/ml + compound 1 μM; 37° C., 1 h
Procedure: (§2) Next, the effects of various serine proteases and inhibitors on IL-18 levels were examined. The saliva samples were incubated with vehicle (DMSO/PBS), chymase (2 μg/ml), COMPOUND No. 3 (1 μM), chymase (2 μg/ml)+COMPOUND No. 3 (1 μM), chymostatin (3 μg/ml), chymase (2 μg/ml)+chymostatin (3 μg/ml), cathepsin G (2 μg/ml), cathepsin G (2 μg/ml)+COMPOUND No. 3 (1 μM), elastase (0.5 μg/ml), elastase (0.5 μg/ml)+COMPOUND No. 3 (1 μM), proteinase 3 (2 μg/ml), proteinase 3 (2 μg/ml)+COMPOUND No. 3 (1 μM), tryptase (1 μg/ml), or tryptase (1 μg/ml)+COMPOUND 3 (1 μM) at 37° C. for 1 h. […] In contrast, cathepsin G and elastase had no effect on IL-18 levels. […] However, the reduction of IL-18 by these two enzymes was not reversed by COMPOUND No. 3.

[5] = system: endogenous chymase activity and other proteases activity in saliva samples; experiment: IL-18 levels in saliva samples incubated with protease inhibitors, no added chymase (ELISA); type: biochemical, human; conditions: 37° C., 1 hour
Procedure: To determine the effects of additional protease inhibitors on the endogenous IL-18 levels, the pan protease inhibitors and/or COMPOUND No. 3 were incubated with saliva samples at 37° C. for 1 hour. […] Ten μM of COMPOUND NO.

[6] = target: T2, proteinase 3 (Homo sapiens, UniProt P24158); experiment: reversal of proteinase 3-induced reduction of IL-18 in saliva (ELISA); type: biochemical; conditions: proteinase 3 2 μg/ml + compound 1 μM; 37° C., 1 h
T2 sequence (P24158 28-248): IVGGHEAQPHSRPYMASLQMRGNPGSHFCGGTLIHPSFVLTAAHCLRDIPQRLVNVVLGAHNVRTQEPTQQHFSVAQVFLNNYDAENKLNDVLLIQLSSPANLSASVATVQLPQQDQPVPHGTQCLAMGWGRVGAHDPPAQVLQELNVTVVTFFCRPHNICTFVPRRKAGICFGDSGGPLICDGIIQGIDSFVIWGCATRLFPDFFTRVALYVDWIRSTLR
Procedure: as §2

[7] = system: endogenous IL-18; experiment: effect of serine proteases on endogenous IL-18 levels in saliva samples (ELISA); type: biochemical, human; conditions: 37° C.; for effect of serine protease on IL-18 levels: saliva, 1 h, chymase 2, cathepsin G 2, elastase 0.5, proteinase 3 2, tryptase 1 μg/ml
Procedure: Next, activities of the recombinant chymase and COMPOUND NO. 3 were examined with endogenous IL-18. One ml of saliva samples were collected from six subjects and incubated with vehicle (DMSO/PBS), chymase (80 nM), and chymase+COMPOUND No. 3 (1 μM) at 37° C. for 3 hr.
To determine the dose effects of the recombinant chymase on IL-18 levels, 1-300 nM of the recombinant chymase were incubated with saliva samples at 37° C. for 1 hr.
as §2

[8] = system: recombinant mature human IL-18; experiment: cleavage of recombinant mature human IL-18 by chymase (Western blot, ELISA); type: biochemical; conditions: 37° C.
Procedure: A recombinant human chymase was generated according to Kervinen et al. (2008). A hundred ng of the recombinant mature human IL-18 (rIL-18, R&D Systems, 614 McKinley Place NE, Minneapolis, Minn. 55413) was incubated with the recombinant chymase (w/w 1:25) in PBS at 37° C. for various time points. The digestion products were separated on a 4-12% gradient gel. Western blot analysis was done with a specific monoclonal antibody against human IL-18. […] The exact cleavage sites were not clear. Without being bound to any theory, the mature IL-18 may be cleaved by the recombinant human chymase into the ˜16 kD fragment which may be further degraded into the ˜12 kD fragment. […] In addition, the chymase-induced cleavage of rIL-18 was both time (FIG. 1A) and dose dependent (FIG. 1B).
as §1

Molecule: CP(=O)(O)C(C(=O)N/C=C/c1ccc(F)c(F)c1)c1csc2ccc(Cl)cc12 (stereo not shown) [COMPOUND NO. 1]
cross activity with other serine proteases [1]: little or no cross activity
IL-18 levels in saliva compared to the placebo group, 100 mg ([2]; 100 mg for 14 days): similar
IL-18 levels in saliva compared to the placebo group, 600 mg ([2]; 600 mg for 14 days, p<0.03): significant increase

dose-dependent reversal of chymase-induced decrease of IL-18 levels [3]: dose-dependently reversed
IC50 [3]: 1460 ± 563 nM
Molecule: CC(C)OC(=O)OCOP(=O)(O)C(C(=O)N/C=C/c1cc(Cl)cc(Cl)c1)c1csc2ccc(Cl)cc12 (stereo not shown) [COMPOUND NO. 2]

reversal of tryptase-induced reduction of IL-18 [4]: not reversed
reversal of the decrease in IL-18 levels in incubated saliva ([5]; 1 or 10 μM): reversed some of the decrease
increase of IL-18 levels at 10 μM compared with 1 μM [5]: almost two fold
reversal of proteinase 3-induced reduction of IL-18 [6]: not reversed
dose-dependent reversal of chymase-induced decrease of IL-18 levels [3]: dose-dependently reversed
IC50 [3]: 3600 ± 928 nM
reversal of chymase-induced decrease of IL-18 levels, subjects 1-3 and 6 ([3]; chymase 80 nM + compound 1 μM, 3 hr, subjects 1-3 and 6): reversed completely
reversal of chymase-induced decrease of IL-18 levels, subjects 4 and 5 ([3]; chymase 80 nM + compound 1 μM, 3 hr, subjects 4 and 5): reverted to a large degree
reversal of chymase-induced reduction of IL-18 levels [3]: reversed this reduction
reversal of chymase-induced decrease of IL-18 levels ([3]; saliva of six subjects, chymase 80 nM + compound 1 μM, 3 hr): reversed or prevented
Molecule: O=C(N/C=C/c1cc(Cl)cc(Cl)c1)C(c1csc2ccc(Cl)cc12)P(=O)(O)O (stereo not shown) [COMPOUND NO. 3]

reversal of chymase-induced reduction of IL-18 levels [3]: reversed the reduction
Molecule: CC(C)C[C@H](NC(=O)[C@@H](NC(=O)N[C@@H](Cc1ccccc1)C(=O)O)[C@@H]1CCN=C(N)N1)C(=O)N[C@H](C=O)Cc1ccccc1 [chymostatin, reference compound]

Molecule: elastase
effect of serine protease on IL-18 levels [7]: no effect

B1: cathepsin G: serine protease (protein, UniProt P08311 21-244, looked up)
Cathepsin G: IIGGRESRPHSRPYMAYLQIQSPAGQSRCGGFLVREDFVLTAAHCWGSNINVTLGAHNIQRRENTQQHITARRAIRHPQYNQRTIQNDIMLLQLSRRVRRNRNVNPVALPRAQEGLRPGTLCTVAGWGRVSMRRGTDTLREVQLRVQRDRQCLRIFGSYDPRRQICVGDRRERKAAFKGDSGGPLLCNNVAHGIVSYGKSSGVPPEVFTRVSSFLPWIRTTMRS
effect of serine protease on IL-18 levels [7]: no effect

B2: Proteinase 3: serine protease (protein, UniProt P24158 28-248, looked up)
Myeloblastin: T2 sequence (P24158 28-248)
effect of serine protease on IL-18 levels [7]: reduced IL-18 levels significantly

EC50 ([7]; 1-300 nM chymase in saliva samples, 1 hr, n=3): 60.4 ± 15.2 nM
B3: recombinant chymase: recombinant human chymase generated according to Kervinen et al. (2008) (protein, UniProt P23946 22-247, looked up)
Chymase: T1 sequence (P23946 22-247)
effect on immunoreactivity or levels of endogenous IL-18 ([7]; chymase 80 nM, saliva of six subjects, 3 hr): decrease
effect of serine protease on IL-18 levels [7]: reduced
rIL-18 immunoreactivity or levels in the presence of chymase, PBS ([8]; 80 nM chymase, 4 mg/ml rIL-18, PBS, 1.5 h, without chymase ~4000): ~1300 ng/mL
rIL-18 immunoreactivity or levels in the presence of chymase, saliva ([8]; 80 nM chymase, 4 mg/ml rIL-18, saliva, 1.5 h, without chymase ~3,000): ~1,000 ng/ml
cleavage of mature human IL-18 (Western blot) ([8]; 100 ng rIL-18, chymase w/w 1:25, PBS, fragments ~16 and ~12 kD): able to cleave
